According to the supplement of paper PMC10307832:

Experiments:
Assay in all cases: relative viability (nuclei count vs DMSO), 5 days (fraction); higher = more cells survive
[1] = compound: COC1=CC=C(C=C1)CN2C=CC3=C2C=C(C=C3)C(=O)NO + CCNC(=O)c1noc(-c2cc(C(C)C)c(O)cc2O)c1-c1ccc(CN2CCOCC2)cc1 [Luminespib] (partner 0.01 µM)
Outline: (§1)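 Relative viability was taken as the ratio of nuclei in treated wells to nuclei in vehicle wells. Lung cancer cell lines in 1536-well plates received compounds by pin tool one day after seeding, either one drug alone or a fixed anchor-drug dose plus five library-drug doses (not always all listed) in √10 steps. Nuclei were counted on 4× images after 5 days of treatment, and values are medians of duplicate plates.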

[2] = compound: COC1=CC=C(C=C1)CN2C=CC3=C2C=C(C=C3)C(=O)NO + N=C(N)NC(=N)NCCc1ccccc1 [Phenformin] (partner 250 µM)
Outline: as §1

[3] = compound: COC1=CC=C(C=C1)CN2C=CC3=C2C=C(C=C3)C(=O)NO + Nc1ncn([C@H]2C[C@H](O)[C@@H](CO)O2)c(=O)n1 [Decitabine] (partner 2 µM)
Outline: as §1

Veliparib + Linsitinib = compound: C[C@]1(c2nc3c(C(N)=O)cccc3[nH]2)CCCN1 [Veliparib] + C[C@]1(O)C[C@@H](c2nc(-c3ccc4ccc(-c5ccccc5)nc4c3)c3c(N)nccn32)C1 [Linsitinib] (partner 1 µM)
Outline: as §1

Cell Line | relative viability ([1]; first compound 0.08 µM) | relative viability ([1]; first compound 0.253 µM) | relative viability ([1]; first compound 0.8 µM) | relative viability ([1]; first compound 2.53 µM) | relative viability ([1]; first compound 8 µM) | relative viability ([2]; first compound 0.08 µM) | relative viability ([2]; first compound 0.253 µM) | relative viability ([2]; first compound 0.8 µM) | relative viability ([2]; first compound 2.53 µM) | relative viability ([2]; first compound 8 µM) | relative viability ([3]; first compound 0.08 µM) | relative viability ([3]; first compound 0.8 µM) | relative viability ([3]; first compound 2.53 µM) | relative viability ([3]; first compound 8 µM) | relative viability (Veliparib + Linsitinib; first compound 0.02 µM) | relative viability (Veliparib + Linsitinib; first compound 0.06325 µM) | relative viability (Veliparib + Linsitinib; first compound 0.2 µM) | relative viability (Veliparib + Linsitinib; first compound 0.6325 µM) | relative viability (Veliparib + Linsitinib; first compound 2 µM) | relative viability ([3]; first compound 0.253 µM)
PC-3 [JPC-3] | 0.797 | 0.746 | 0.655 | 0.729 | 0.753 | 0.5 | 0.464 | 0.475 | 0.495 | 0.497 | 0.764 | 0.775 | 0.833 | 0.832 | 0.929 | 0.921 | 0.917 | 0.883 | 0.972 | –
NCI-H23 | – | – | 0.226 | 0.221 | 0.204 | 0.699 | 0.843 | 0.852 | 0.712 | 0.653 | 0.291 | 0.377 | 0.301 | 0.296 | 0.775 | 0.504 | 0.574 | 0.505 | 0.65 | 0.325
SK-MES-1 | 0.795 | 0.833 | 0.609 | 0.795 | 0.504 | 0.661 | 0.651 | 0.632 | 0.686 | 0.644 | 0.397 | 0.436 | 0.369 | 0.343 | 1.05 | 1.03 | 1.06 | 0.913 | 1.09 | 0.377
NCI-H1651 | 0.927 | 0.885 | 1.02 | 0.816 | 0.655 | 0.349 | 0.302 | 0.39 | 0.325 | 0.275 | 0.584 | 0.616 | 0.566 | 0.579 | 0.854 | 1.01 | 0.984 | 0.82 | 0.805 | 0.52
SK-LU-1 | 0.184 | 0.197 | 0.183 | 0.191 | 0.185 | 0.551 | 0.566 | 0.596 | 0.604 | 0.469 | 0.611 | 0.634 | 0.753 | 0.531 | 1.2 | 1.01 | 1.17 | 1.06 | 1.17 | 0.616
NCI-H727 | 0.345 | 0.406 | 0.311 | 0.436 | 0.323 | 0.603 | 0.475 | 0.517 | 0.534 | 0.415 | 0.813 | 0.792 | 0.705 | 0.909 | 0.284 | 0.219 | 0.253 | 0.293 | 0.24 | 0.866
NCI-H3122 | 0.0872 | 0.107 | 0.141 | 0.0763 | 0.0869 | – | 0.324 | 0.393 | 0.382 | 0.337 | 0.467 | 0.484 | 0.468 | 0.386 | 1.04 | 1.01 | 0.983 | 1.04 | 1.06 | 0.479
NCI-H1703 | – | – | – | – | – | – | – | – | – | – | – | – | – | – | 0.17 | 0.63 | 1.22 | 0.604 | 0.974 | –
CAL-12T | 0.163 | 0.233 | 0.528 | 0.452 | 0.332 | 0.643 | 0.563 | 0.589 | 0.581 | 0.493 | – | – | – | – | 0.356 | 0.823 | 0.775 | 0.765 | 0.817 | –
HCC-366 | – | – | – | – | – | 0.633 | 0.624 | 0.634 | 0.599 | 0.532 | 0.231 | 0.351 | 0.337 | 0.264 | 0.511 | 0.623 | 0.536 | 0.572 | 0.574 | 0.365
NCI-H2170 | 0.566 | 0.748 | 0.549 | 0.833 | 0.589 | 0.407 | 0.396 | 0.411 | 0.419 | 0.381 | 0.494 | 0.459 | 0.455 | 0.43 | – | – | – | – | – | 0.514
EBC-1 | – | – | – | – | – | – | – | – | – | – | – | – | – | – | 0.771 | 0.807 | 0.723 | 0.793 | 0.97 | –
HCC-78 | – | – | – | – | – | 0.62 | 0.63 | 0.718 | 0.818 | 0.65 | 0.768 | 0.74 | 0.702 | 0.521 | 0.612 | 0.53 | 0.592 | 0.36 | 0.541 | 0.643
NCI-H1650 | 0.194 | 0.189 | 0.194 | 0.213 | 0.203 | 0.4 | 0.447 | 0.422 | 0.334 | 0.204 | 0.358 | 0.423 | 0.392 | 0.328 | – | – | – | – | – | 0.407
NCI-H522 | 1.01 | 1.13 | 1.18 | 1.06 | 1.22 | – | 0.591 | 0.614 | 0.654 | 0.651 | – | 0.606 | 0.63 | 0.765 | – | – | – | – | – | 0.649
A549 | – | – | – | – | – | – | 0.159 | 0.173 | 0.188 | 0.0674 | 0.187 | 0.286 | 0.235 | 0.374 | 0.62 | 0.576 | 0.591 | 0.626 | 0.586 | 0.264
NCI-H1563 | 0.507 | 0.506 | 0.517 | 0.551 | 0.488 | 0.622 | 0.676 | 0.671 | 0.664 | 0.534 | – | – | – | – | 1.23 | 1.07 | 1.27 | 1.12 | 1.12 | –
NCI-H2342 | 0.697 | 0.629 | 0.762 | 0.786 | 0.738 | 0.588 | 0.511 | 0.48 | 0.453 | 0.409 | 0.76 | 0.707 | 0.799 | 0.769 | – | – | – | – | – | 0.733
NCI-H2228 | – | 0.193 | 0.179 | 0.142 | 0.13 | – | 0.381 | 0.3 | 0.305 | 0.24 | – | – | – | – | 0.552 | 0.601 | 0.681 | 0.572 | 0.726 | –
NCI-H1623 | 0.578 | 0.761 | 0.576 | 0.471 | 0.392 | 0.396 | 0.581 | 0.542 | 0.616 | 0.513 | – | – | – | – | – | – | – | – | – | –
SW 900 | 0.174 | 0.234 | 0.206 | 0.217 | 0.165 | 0.643 | 0.652 | 0.593 | 0.512 | 0.339 | 0.441 | 0.446 | 0.423 | 0.411 | – | – | – | – | – | 0.403
NCI-H1299 | – | – | – | – | – | – | – | – | – | – | – | – | – | – | 0.905 | 0.931 | 0.921 | 0.898 | 0.988 | –
Calu-6 | – | – | – | – | – | – | – | – | – | – | – | – | – | – | 0.582 | 0.826 | 0.999 | 0.963 | 0.987 | –
